According to US20130071897A1, “METHOD FOR CONTROLLING UNDESIRABLE BYPRODUCTS FORMATION CAUSED BY CONTAMINATING ORGANISMS IN THE PRODUCTION OF ETHANOL FROM SYNGAS” (COSKATA, INC., priority 2011, published 2013):
“And” between values parts separate entries of the source, which are not always exact repeats. Equal values may be shown once.

Key:
[1] = test system: C. autoethanogenum; assay: Toxicity to C. autoethanogenum by batch fermentation using syngas substrate, optical density; assay type: cell-based, Clostridium autoethanogenum; details: for O.D. Response of Various Inhibitors on C. autoethanogenum: Table 21, one value per compound; for O.D. Response to Various Inhibitors: duplicates A and B, amount not given
Experimental: In this example various crotonate-like compounds on are evaluated for toxicity to C. autoethanogenum by batch fermentation using syngas substrate. The batch fermentations are conducted by anoxically filling 100 mL serum bottles with 10 mL of media having the composition given in Tables 12 and 13. Duplicate runs are conducted for each concentration. The compounds are: • C-1 Ethyl 4,4,4-trifluoro-3-(trifluoromethyl)crotonate • C-4 4,4,4-Trifluorocrotonamide • C-9 Ethyl 4,4,4-Trifluoro-3-(amino)crotonate • C-18 3 trifluoromethyl-4-methoxybenzoate.
Each bottle is inoculated with 1.0 mL of seed culture inoculum from an active fermenter using syngas substrate and containing Clostridium autoethanogenum, which inoculum has an OD of about 4.92 (which upon a 10 times dilution provides a starting OD for the fermentation of about 0.49). The bottles are gased with syngas to about 100 kilopascals and maintained at a temperature of 37° C. The bottles are regassed with syngas every 8 to 12 hours. The syngas has the approximate composition set forth in Examples 6 to 10. Twenty four hours after inoculation of the bottles with the bacteria, the compounds are added to different bottles as a solution in 50 μL of N-methylpyrrolidone in the amounts indicated in Tables 20 and 21. The fermentation process is allowed to progress at 37° C. At selected intervals of time, bacterial growth is measured by reading the OD of the fermentation liquid using a Thermo Spectronic Genesys 20 spectrophotometer. Optical density is measured by anoxically removing an aliquot of fermentation liquid and adding it to a disposable cuvette. OD's ranging between 0.01 and 0.4 are measured using fermentation liquid directly, while OD's greater than 0.4 are measure after performing a 1/10 dilution with water.

[2] = test system: Clostridium carboxydivorans; assay: Balch tube batch growth of heteroacetogenic bacteria Clostridium carboxydivorans on fructose, optical density; assay type: cell-based; parameters: key to Optical density valuation of C. carboxidivorans: +: bacterial growth to an OD of approximately 1.8; +/−: one duplicate test tube showed a + indication and the other showed an optical density of less than 0.5; details: for Optical density valuation of C. carboxidivorans: added 20 h after inoculation; for Inhibition effect for reducing butyrogen growth: summary of Examples 1-5
Experimental: Similar experiments were conducted to determine the effect of the crotonate derivatives on heteroacetogenic bacteria. Selected crotonate derivatives were tested in a series of batch experiments to determine the growth response of butyrogens to the presence of the compounds at varying concentrations. The batch experiments were all conducted by anoxically filling a 20 ml Balch tube with 5 ml of a fermentation medium having the composition given in Tables 2 and 3. The media included 0.5 v/v final concentration of a fructose substrate. For each of the crotonate concentrations tested, duplicate test tubes were prepared.
Each tube was inoculated with 0.5 ml of the heteroacetogenic bacteria Clostridium carboxydivorans. The tubes were maintained at a temperature of 37° C. At a time 20 hours after the inoculation of the bacteria different crotonate derivatives from Table 1 were added to different tubes in the amounts indicated in Table 7. This was at a time of early to mid-log phase growth. Each fermentation of the bacteria in the media at the different concentration of crotonate derivatives were allowed to progress and were monitored to determine the bacteria growth at selected intervals of time varying from approximately 20 hours to 54 hours. Growth at the different intervals was measured by reading the optical density (OD) of the fermentation liquid. Optical density was measured as described in Example 1. The ability of a tube fermentation at a particular concentration of crotonate derivative to reach a predetermined optical density was recorded in Table 7. Table 7 indicates the presence of bacterial growth to an OD of approximately 1.8 with a “+”.
Compound A was tested again in set of experiments in all respects the same as that described for Example 4 except that compound A was added to Balch tubes in the amounts indicated in Table 7 at a time 5.5 hours after the inoculation of the bacteria. This was at a time in early log phase growth. In this case the Balch tube that contained no compound A reached an OD of 2 after 29 hours or less.

[3] = test system: C. coskatii; assay: Balch tube batch growth of homoacetogen C. coskatii on fructose, optical density; assay type: cell-based; details: added 21 h after inoculation
Experimental: Compounds A and D were again tested to determine their effect on another known homoacetogen. Each compound was tested in a series of batch experiments to determine the growth response of the homoacetogen to the presence of the compound at varying concentrations. These batch experiments were again all conducted by anoxically filling a Balch tube with 5 ml of a fermentation medium having the composition given in Tables 2 and 3. To expedite results, these batch experiments used fructose as the growth nutrient source for bacteria. Thus, the media included 5 g/L of fructose.
Each tube was inoculated with 0.5 ml of the same strain of C. coskatii bacteria seed culture inoculum. The tubes were maintained at a temperature of 37° C. Twenty one hours after the inoculation of the tube with the bacteria, the different crotonate derivatives from Table 1 were added to different tubes in the amounts indicated in Table 5. This was at a time of early to mid-log phase growth for the bacteria. Each fermentation of the bacteria in the media at the different concentration of crotonate derivatives were allowed to progress and were monitored to determine the bacteria growth at selected intervals of time varying from approximately 20 hours to 50 hours. Growth at the intervals was determined by measurement of the OD in the manner described in Example 1. The ability of a tube fermentation at a particular concentration of crotonate derivative to reach a predetermined optical density was recorded in Table 5. Table 5 indicates the presence of bacterial growth to an OD of approximately 1.6 or above with a “+”. All the samples of C. Coskatii reached a relatively high OD after a time of only 50 hours.

[4] = 0 Hours, added 24 h after inoculation
[5] = 2.5 Hours, added 24 h after inoculation
[6] = 6.5 Hours, added 24 h after inoculation
[7] = 24.5 Hours, added 24 h after inoculation

Row | Structure (SMILES) | O.D. Response of Various Inhibitors on C. autoethanogenum [1, 4] | O.D. Response of Various Inhibitors on C. autoethanogenum [1, 5] | O.D. Response of Various Inhibitors on C. autoethanogenum [1, 6] | O.D. Response of Various Inhibitors on C. autoethanogenum [1, 7] | O.D. Response of Various Inhibitors on C. autoethanogenum ([1]; 30.5 Hours) | O.D. Response of Various Inhibitors on C. autoethanogenum ([1]; 47.5 Hours) | O.D. Response of Various Inhibitors on C. autoethanogenum ([1]; 56 Hours) | O.D. Response to Various Inhibitors [1, 4] | Optical density valuation of C. carboxidivorans ([2]; 100 ppm(m)) | Optical density valuation of C. carboxidivorans ([2]; 500 ppm(m)) | Optical density valuation of C. carboxidivorans ([2]; 1000 ppm(m)) | Inhibition effect for reducing butyrogen growth [2] | Optical density valuation of C. coskatii ([3]; 100 ppm(m)) | Optical density valuation of C. coskatii ([3]; 500 ppm(m)) | Optical density valuation of C. coskatii ([3]; 1000 ppm(m)) | other results
1 | CCOC(=O)/C=C(\N)C(F)(F)F [B, ethyl-3-amino-4,4,4-trifluorocrotonate] | 0.49 | 0.41 | 0.44 | 1.06 | 1.38 | 1.90 | 1.98 | 0.49 | – | – | – | – | – | – | – | O.D. Response to Various Inhibitors ([1]; 2.5 Hours, added 24 h after inoculation, listed as C-9): 0.40 and 0.42; O.D. Response to Various Inhibitors ([1]; 6.5 Hours, added 24 h after inoculation, listed as C-9): 0.42 and 0.46; O.D. Response to Various Inhibitors ([1]; 24.5 Hours, added 24 h after inoculation, listed as C-9): 1.14 and 0.97; O.D. Response to Various Inhibitors ([1]; 30.5 Hours, added 24 h after inoculation, listed as C-9): 1.28 and 1.47; O.D. Response to Various Inhibitors ([1]; 47.5 Hours, added 24 h after inoculation, listed as C-9): 1.67 and 2.12
2 | O=C(O)C=C(C(F)(F)F)C(F)(F)F [D, 4,4,4-trifluoro-3-(trifluoromethyl)crotonic acid] | – | – | – | – | – | – | – | – | + (bacterial growth to an OD of approximately 1.8) | + (bacterial growth to an OD of approximately 1.8) | +/− | showed inhibition effect | + (bacterial growth to an OD of approximately 1.6 or above) | + (bacterial growth to an OD of approximately 1.6 or above) | + (bacterial growth to an OD of approximately 1.6 or above) | –
3 | CCOC(=O)C=C(C(F)(F)F)C(F)(F)F [Compound A, ethyl 4,4,4-trifluoro-3-(trifluoromethyl)crotonate] | 0.49 | 0.44 | 0.44 | 1.12 | 1.18 | 0.66 | 0.58 | 0.49 | + (bacterial growth to an OD of approximately 1.8) | + (bacterial growth to an OD of approximately 1.8) | + (bacterial growth to an OD of approximately 1.8) | showed inhibition effect | + (bacterial growth to an OD of approximately 1.6 or above) | + (bacterial growth to an OD of approximately 1.6 or above) | + (bacterial growth to an OD of approximately 1.6 or above) | OD of C. carboxidivorans tube fermentations ([2]; 500 and 1000 ppm added 5.5 hours after inoculation): ≤ 0.5; O.D. Response to Various Inhibitors ([1]; 2.5 Hours, added 24 h after inoculation, listed as C-1): 0.42 and 0.46; O.D. Response to Various Inhibitors ([1]; 6.5 Hours, added 24 h after inoculation, listed as C-1): 0.42 and 0.46; O.D. Response to Various Inhibitors ([1]; 24.5 Hours, added 24 h after inoculation, listed as C-1): 1.17 and 1.08; O.D. Response to Various Inhibitors ([1]; 30.5 Hours, added 24 h after inoculation, listed as C-1): 1.15 and 1.22; O.D. Response to Various Inhibitors ([1]; 47.5 Hours, added 24 h after inoculation, listed as C-1): 0.66 and 0.67
